Measured values from patent US8232293B2, “Crystalline forms of a potent HCV inhibitor” (Boehringer Ingelheim International GmbH, priority 2008, dated 2012).
≈ marks a conversion by molar mass, not a printed value. Where a name gives a salt, the structure may show the parent alone. Read-outs that look alike come from different tables or passages of the source.

Columns and labels:
[1] = Solubility in non-aqueous excipients (excess solid, HPLC of filtrate); assay type: physicochemical; conditions: room temperature, rotated up to 4 days; for solubility: thermodynamic from solid; for Solubility in Ethanol: excipient Ethanol; for Solubility in Transcutol P: excipient Transcutol P
Method: (§1) The solubility of Compound (1), as either Type A or the sodium salt form, was investigated in various non-aqueous solvents. The solutions were prepared by addition of excess Compound (1) to 0.25 ml to 1.0 ml of excipient in amber screw cap vials with Teflon lined caps. The samples were allowed to rotate at room temperature for up to 4 days. Sampling was done by centrifuging (14,000 rpm on the Eppendorf model 5415C table top centrifuge) and filtering through a 0.45 μm PVDF filter. The filtrate was subject to HPLC analysis for determining the solubility. HPLC analysis was conducted with an Agilent 1100 using gradient or isocratic conditions. Both methods used acetonitrile/water (each with 0.1% Trifluroacetic Acid) and an ACE C-18 stationary phase with column heating maintained at 40-45° C. The wavelength of detection was set at 220 nm or 264 nm. Wet solids were collected and analyzed for form change (stability) by XRPD.

[2] = Form change (stability) study of slurried solids by XRPD; assay type: physicochemical; conditions: slurried in either propylene glycol or ethanol, FIG. 5
Method: as §1
XRPD analyses for the form change studies were conducted on a Bruker AXS X-Ray Powder Diffractometer Model D8 Discover or D8 Advance, available from Bruker AXS, Inc. of Madison, Wis., using CuKα radiation. The tube power was set to either 40 kV and 40 mA or 40 kV and 30 mA. […]

HCV infection = experiment: Human clinical trials in HCV-infected patients; assay type: in vivo
HCV NS3 serine protease = HCV NS3 serine protease (Hepatitis C virus genotype 1a, UniProt P27958); conditions: cited from earlier work
Sequence of HCV NS3 serine protease (P27958 1658-1711): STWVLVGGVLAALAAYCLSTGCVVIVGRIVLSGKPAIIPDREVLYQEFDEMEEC
Sequence of HCV NS3 serine protease (P27958 1027-1657): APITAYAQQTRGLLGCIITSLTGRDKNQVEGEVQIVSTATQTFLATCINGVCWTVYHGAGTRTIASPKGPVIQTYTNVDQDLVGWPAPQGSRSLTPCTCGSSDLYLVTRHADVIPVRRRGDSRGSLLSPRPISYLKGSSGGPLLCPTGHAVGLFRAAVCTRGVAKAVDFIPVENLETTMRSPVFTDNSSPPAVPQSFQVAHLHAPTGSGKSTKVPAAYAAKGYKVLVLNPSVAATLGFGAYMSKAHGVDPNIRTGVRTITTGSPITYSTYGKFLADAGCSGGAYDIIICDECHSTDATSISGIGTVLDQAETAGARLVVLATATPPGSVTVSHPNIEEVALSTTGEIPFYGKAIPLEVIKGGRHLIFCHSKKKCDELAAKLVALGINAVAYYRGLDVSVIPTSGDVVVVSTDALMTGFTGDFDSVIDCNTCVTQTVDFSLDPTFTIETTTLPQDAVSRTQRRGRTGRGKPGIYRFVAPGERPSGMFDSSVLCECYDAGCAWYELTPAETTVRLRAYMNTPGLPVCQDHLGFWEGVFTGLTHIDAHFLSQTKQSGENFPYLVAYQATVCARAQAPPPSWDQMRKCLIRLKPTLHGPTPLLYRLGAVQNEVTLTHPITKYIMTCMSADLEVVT

SMILES: C=C[C@@H]1C[C@]1(NC(=O)[C@@H]1C[C@@H](Oc2cc(-c3csc(NC(=O)C(C)C)n3)nc3c(Br)c(OC)ccc23)CN1C(=O)[C@@H](NC(=O)OC1CCCC1)C(C)(C)C)C(=O)O [Compound (1) Na salt]
- solubility ([1]; Capmul MCM (non-aqueous excipient), oil or lipid, excipient Capmul MCM, read-out: Solubility in Capmul MCM): 262.5 ± 2.6 mg/mL
- solubility ([1]; Capmul PG8 (non-aqueous excipient), oil or lipid, excipient Capmul PG8, read-out: Solubility in Capmul PG8): < 169 mg/mL
- solubility ([1]; Labrasol (non-aqueous excipient), oil or lipid, excipient Labrasol, read-out: Solubility in Labrasol): 175 ± 11.8 mg/mL
- solubility ([1]; PEG 400 (non-aqueous excipient), organic solvent or mixture, excipient PEG 400, read-out: Solubility in PEG 400): 234 ± 34 mg/mL
- solubility ([1]; Propylene Glycol (non-aqueous excipient), organic solvent or mixture, excipient Propylene Glycol, read-out: Solubility in Propylene Glycol): > 468 mg/mL
- Solubility in Ethanol [1]: 187.0 ± 23.9 mg/mL
- Solubility in Transcutol P [1]: 430.6 ± 14.7 mg/mL
- Form stability (change in XRPD pattern of remaining solid) ([2]; listed as crystalline sodium salt form of Compound (1)): no change in the XRPD pattern
- Effectiveness in treating HCV-infected patients (HCV infection): demonstrated effectiveness

SMILES: C=C[C@@H]1C[C@]1(NC(=O)[C@@H]1C[C@@H](Oc2cc(-c3csc(NC(=O)C(C)C)n3)nc3c(Br)c(OC)ccc23)CN1C(=O)[C@@H](NC(=O)OC1CCCC1)C(C)(C)C)C(=O)O [Compound (1)]
- Inhibitory activity against HCV NS3 serine protease (HCV NS3 serine protease): selective and potent inhibitor

SMILES: C=C[C@@H]1C[C@]1(NC(=O)[C@@H]1C[C@@H](Oc2cc(-c3csc(NC(=O)C(C)C)n3)nc3c(Br)c(OC)ccc23)CN1C(=O)[C@@H](NC(=O)OC1CCCC1)C(C)(C)C)C(=O)O [Type A of Compound (1)]
- Solubility in Capmul MCM ([1]; excipient Capmul MCM): 220.6 ± 7.4 mg/mL (≈ 254 mM)
- Solubility in Capmul PG8 ([1]; excipient Capmul PG8): 172.6 ± 8.3 mg/mL (≈ 198 mM)
- Solubility in Ethanol [1]: 0.9 ± 0.1 mg/mL (≈ 1.03 mM)
- Solubility in Labrasol ([1]; excipient Labrasol): 146.7 ± 5.1 mg/mL (≈ 169 mM)
- Solubility in PEG 400 ([1]; excipient PEG 400): 136.8 ± 3.2 mg/mL (≈ 157 mM)
- Solubility in Transcutol P [1]: 24.3 ± 0.3 mg/mL (≈ 27.9 mM)
- Form stability (change in XRPD pattern of remaining solid) ([2]; listed as Type A form of Compound (1)): clear form change
